These results are taken from patent US8871226B2, “Methods and compositions for the treatment and diagnosis of cancer” (Hafid Mahboubi, priority 2003, dated 2014).

The test system of experiment [1] is Psoriasis. The experiment can be described thus: Antimycotic treatment of a Candida-seropositive patient, psoriasis. The format is in vivo, human. To be noted: Patient 4, Candida serological test 640; 100 mg 1 capsule a day for 1 month. Here is the method:
(§1) The inventor has performed many serological tests on patients suffering from various illnesses and particularly from different types of cancer. The inventor has shown that, in many of the patients who tested positive for Candida in the serological tests, after antimycotic treatments, a full recovery was observed, with complete disappearance of the tumours in the case of the patients affected by cancer.
Positive Candida serological test (640)
The patient was treated with Diflucan, 100 mg 1×1 capsule a day. For 1 month.

Experiment [2] has as its system Cancer of the Ovary with Liver Metastasis. The experiment can be described thus: Antimycotic treatment of a Candida-seropositive patient, cancer of the ovary with liver metastasis. The format is in vivo, human. To be noted: Patient 6, Candida serological test 640; 100 mg 1 capsule a day for 30 days. As to the method: The inventor has performed many serological tests on patients suffering from various illnesses and particularly from different types of cancer.
Patient 6: person with Cancer of the Ovary with Liver Metastasis.
The patient was treated with Diflucan, 100 mg 1 capsule a day. For 30 days

Experiment [3] concerns candidiasis. To be noted: in vivo; cited from earlier work.
Experiment [4] relates to C. cruzii. To be noted: infections caused by C. cruzii; cited from earlier work.
Experiment [5] deals with C. glabrata. To be noted: some other species of Candida, particularly C. glabrata; cited from earlier work.
The subject of experiment [6] is tumour of the myoma of the uterus. The experiment can be described thus: Antimycotic treatment of a Candida-seropositive patient, tumour of the myoma of the uterus. The format is in vivo, human. To be noted: Patient 1, Candida rate 640; 1 tablet 2x day for two weeks, then 1 tablet a day for 30 days.
Description: as §1
A patient, hospitalised, suffering from a tumour of the myoma of the uterus.
The patient was treated with Nizoral (1 tablet 2× day for two weeks, then 1 tablet a day for 30 days).

Experiment [7] relates to Prostate Cancer. As to the kind of experiment: Antimycotic treatment of Candida-seropositive patients, prostate cancer. The format is in vivo, human.
Description: as §1
Patient 2: person with Prostate Cancer.
Positive for Candida serological test (640)
The patient was treated with Orungal, 100 mg capsules, 1×1 caps a day for 1 month.
Patient 7: person with Prostate Cancer
Positive candida serological test (320).
The patient was treated with Nizoral (1 tablet 2× day for two weeks, then 1 tablet a day for 30 days.

The subject of experiment [8] is Breast Cancer. As to the kind of experiment: Antimycotic treatment of a Candida-seropositive patient, breast cancer. To be noted: Patient 3, Candida serological test 320; capsule 100 mg, 1 caps a day for 60 days. The format is in vivo, human. Here is the method:
as §1
Patient 3: person with Breast Cancer
The patient was treated with Orungal, capsule 100 mg, 1×1 caps a day for 60 days.

Experiment [9] concerns Ulcerative Colitis. As to the kind of experiment: Antimycotic treatment of a Candida-seropositive patient, ulcerative colitis. The class given is in vivo, human. To be noted: Patient 5, serological test 320; 100 mg 1 caps a day for 28 days. Here is the method:
as §1
Patient 5: Ulcerative Colitis.
Positive serological test (320).
The patient was treated with Orungal, 100 mg 1×1 caps a day, for 28 days.

With `OC(Cn1cncn1)(Cn1cncn1)c1ccc(F)cc1F` [Diflucan], the Result of treatment entry in [1] was “Complete recovery at the end of the treatment”; in [2] it was “Complete recovery with disappearance of the tumours”.
Consider `OC(Cn1cncn1)(Cn1cncn1)c1ccc(F)cc1F` [Fluconazole, fluconazole], for which, in [3], the “Effectiveness in candidiasis compared with amphotericin B” value is “as effective as amphotericin B”. In addition, in experiment [4], the “Response of infections to treatment” value was “do not respond”. Also, in [5], the “Sensitivity compared with C. albicans” value is “less sensitive”.
`CC(=O)N1CCN(c2ccc(OCC3COC(Cn4ccnc4)(c4ccc(Cl)cc4Cl)O3)cc2)CC1` (stereo not shown) [Nizoral]: the “Result of treatment (tumour)” value in experiment [6] is “Disappearance of the tumour at the end of the treatment”. The Result of treatment result in experiment [7] (Patient 7, Candida serological test 320, 1 tablet 2x day for two weeks, then 1 tablet a day for 30 days) is listed as “Complete recovery”.
Consider `CCC(C)n1ncn(-c2ccc(N3CCN(c4ccc(OCC5COC(Cn6cncn6)(c6ccc(Cl)cc6Cl)O5)cc4)CC3)cc2)c1=O` (stereo not shown) [Orungal], for which the Result of treatment entry was “Complete recovery at the end of the treatment with disappearance of the tumour” in experiment [7] (Patient 2, Candida serological test 640, 100 mg capsules, 1 caps a day for 1 month); “Complete recovery at the end of the treatment” in [8]; “Complete recovery at the end of the treatment” in [9].
